Source: publication PMC8119466, “A screen of FDA-approved drugs identifies inhibitors of protein tyrosine phosphatase 4A3 (PTP4A3 or PRL-3)” (Scientific Reports, 2021)
Counter-ions that a name gives are not always drawn.

Legend:
Assay type in all cases: biochemical
Conditions in all cases: FDA-approved drug screen
recombinant PRL-1 = biological target: T1, recombinant PRL-1 (Homo sapiens, UniProt Q93096); experiment: In vitro phosphatase assay (DiFMUP hydrolysis), PRL-1; further: test concentration or dose not given here
T1 construct: 6xHis (N, cleaved yes); made in house; host or cells: E. coli One Shot BL21 Star
T1 sequence (Q93096 1-173): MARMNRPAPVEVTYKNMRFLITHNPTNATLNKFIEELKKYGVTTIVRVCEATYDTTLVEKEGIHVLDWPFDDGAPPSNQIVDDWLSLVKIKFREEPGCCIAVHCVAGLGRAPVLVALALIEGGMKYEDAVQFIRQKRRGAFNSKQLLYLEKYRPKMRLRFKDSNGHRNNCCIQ

recombinant PRL-2 = biological target: T2, recombinant PRL-2 (Homo sapiens, UniProt Q12974); experiment: In vitro phosphatase assay (DiFMUP hydrolysis), PRL-2;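 further: PRL-2 activity read as DiFMUP hydrolysis after 20 min at room temperature with drug, enzyme first pre-reduced at 4 °C for 20 min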
T2 construct: 6xHis (N, cleaved yes); made in house; host or cells: E. coli One Shot BL21 Star
T2 sequence (Q12974 1-167): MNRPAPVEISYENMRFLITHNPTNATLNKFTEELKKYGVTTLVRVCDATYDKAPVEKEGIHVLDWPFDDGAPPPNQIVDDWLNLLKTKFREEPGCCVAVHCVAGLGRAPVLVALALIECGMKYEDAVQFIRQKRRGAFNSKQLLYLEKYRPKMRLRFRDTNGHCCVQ

recombinant PRL-3 = biological target: T3, recombinant PRL-3 (Homo sapiens, UniProt O75365); experiment: In vitro phosphatase assay (DiFMUP hydrolysis), PRL-3; further: test concentration or dose not given here
T3 construct: 6xHis (N, cleaved yes); made in house; host or cells: E. coli One Shot BL21 Star
T3 sequence (O75365 whole entry): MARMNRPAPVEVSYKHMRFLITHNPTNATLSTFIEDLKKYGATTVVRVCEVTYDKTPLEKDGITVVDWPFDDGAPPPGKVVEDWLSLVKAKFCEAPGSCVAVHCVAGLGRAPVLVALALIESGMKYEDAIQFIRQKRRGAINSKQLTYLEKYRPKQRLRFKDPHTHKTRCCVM

Row | % Phosphatase Activity (compared to DMSO) PRL-1 (recombinant PRL-1; compared to DMSO) | % Phosphatase Activity (compared to DMSO) PRL-2 (recombinant PRL-2; compared to DMSO) | % Phosphatase Activity (compared to DMSO) PRL-3 (recombinant PRL-3; compared to DMSO) | Compound | % Phosphatase Activity (compared to DMSO) PRL-1 (recombinant PRL-1; activity compared to DMSO) | % Phosphatase Activity (compared to DMSO) PRL-2 (recombinant PRL-2; activity compared to DMSO) | % Phosphatase Activity (compared to DMSO) PRL-3 (recombinant PRL-3; activity compared to DMSO)
1 | 95% | 94% | 71% | CC(C(=O)O)c1ccc2c(c1)[nH]c1ccc(Cl)cc12 (stereo not drawn) [Carprofen] |  |  | 
2 | 147% | 205% | 54% | O=C(Nc1cccc2c(=O)cc(-c3nnn[nH]3)oc12)c1ccc(OCCCCc2ccccc2)cc1 [Pranlukast] |  |  | 
3 |  |  |  | Cl.Cl.Clc1ccc(Nc2nnc(Cc3ccncc3)c3ccccc23)cc1 [Vatalanib (PTK787) 2HCl] | 109% | 96% | 72%
4 | 97% | 88% | 76% | C[C@H]1[C@H](NC(=O)/C(=N\OC(C)(C)C(=O)O)c2csc(N)n2)C(=O)N1S(=O)(=O)O [Aztreonam] |  |  | 
5 | 56% | 66% | 35% | CC1=NN(c2ccc(C)c(C)c2)C(=O)/C1=N\Nc1cccc(-c2cccc(C(=O)O)c2)c1O [Eltrombopag Olamine] |  |  | 
6 |  |  |  | Cc1onc(-c2ccccc2)c1-c1ccc(S(N)(=O)=O)cc1 [Valdecoxib] | 97% | 103% | 80%
7 | 121% | 113% | 87% | CN1CCCC(n2nc(Cc3ccc(Cl)cc3)c3ccccc3c2=O)CC1 (stereo not drawn) [Azelastine HCl] |  |  | 
8 | 32% | 51% | 31% | CC(=O)Oc1cccc2c1C(=O)c1c(OC(C)=O)cc(C(=O)O)cc1C2=O [Diacerein] |  |  | 
9 | 94% | 87% | 79% | C#Cc1cccc(Nc2ncnc3cc(OC)c(OCCCCCCC(=O)NO)cc23)c1 [CUDC-101] |  |  | 
10 | 100% | 99% | 82% | CCCN(CCc1cccs1)[C@H]1CCc2c(O)cccc2C1 [Rotigotine] |  |  | 
11 | 94% | 101% | 72% | Oc1c(Br)cc(Br)c2cccnc12 [Broxyquinoline] |  |  | 
12 | 95% | 88% | 72% | C[C@H]1C[C@H]2[C@@H]3CCC4=CC(=O)C=C[C@]4(C)[C@@]3(F)[C@@H](O)C[C@]2(C)[C@@]1(O)C(=O)CO [Betamethasone] |  |  | 
13 |  |  |  | COc1cc(C2Oc3cc([C@H]4Oc5cc(O)cc(O)c5C(=O)[C@@H]4O)ccc3OC2CO)ccc1O (stereo partly drawn) [Silibinin] | 88% | 87% | 87%
14 | 99% | 92% | 114% | Cc1cc(Nc2ncc(Cl)c(Nc3ccccc3S(=O)(=O)C(C)C)n2)c(OC(C)C)cc1C1CCNCC1 [LDK378] |  |  | 
15 | 139% | 116% | 136% | Cc1cc(/C=C/C#N)cc(C)c1Nc1ccnc(Nc2ccc(C#N)cc2)n1 [Rilpivirine] |  |  | 
16 | 91% | 110% | 76% | OCC(O)CN1CCN(c2ccccc2)CC1 (stereo not drawn) [Dropropizine] |  |  | 
17 | 89% | 92% | 87% | Cc1ncc([N+](=O)[O-])n1CCO [Metronidazole] |  |  | 
18 |  |  |  | COc1ccc(NS(=O)(=O)c2ccc(N)cc2)nn1 [Sulfamethoxypyridazine] | 94% | 109% | 77%
19 |  |  |  | CC(c1cc2ccccc2s1)N(O)C(N)=O (stereo not drawn) [Zileuton] | 96% | 86% | 87%
20 | 105% | 99% | 71% | C=C1/C(=C\C=C2/CCC[C@]3(C)[C@@H]([C@H](C)/C=C/[C@H](C)C(C)C)CC[C@@H]23)C[C@@H](O)C[C@@H]1O [Doxercalciferol] |  |  | 
21 | 105% | 88% | 80% | COc1cc(C(C)=O)ccc1OCCCN1CCC(c2noc3cc(F)ccc23)CC1 [Iloperidone] |  |  | 
22 | 121% | 110% | 83% | Nc1nnc(-c2cccc(Cl)c2Cl)c(N)n1 [Lamotrigine] |  |  | 
23 |  |  |  | Cc1cc(C)nc(NS(=O)(=O)c2ccc(N)cc2)n1 [Sulfamethazine] | 108% | 105% | 82%
24 | 112% | 125% | 90% | COC1=CC(=O)C[C@@H](C)[C@]12Oc1c(Cl)c(OC)cc(OC)c1C2=O [Griseofulvin] |  |  | 

Row | Compound | % Phosphatase Activity (compared to DMSO) PRL-1 (recombinant PRL-1; compared to DMSO) | % Phosphatase Activity (compared to DMSO) PRL-2 (recombinant PRL-2; compared to DMSO) | % Phosphatase Activity (compared to DMSO) PRL-3 (recombinant PRL-3; compared to DMSO) | % Phosphatase Activity (compared to DMSO) PRL-1 (recombinant PRL-1; activity compared to DMSO) | % Phosphatase Activity (compared to DMSO) PRL-2 (recombinant PRL-2; activity compared to DMSO) | % Phosphatase Activity (compared to DMSO) PRL-3 (recombinant PRL-3; activity compared to DMSO)
25 | COC(=O)C1=C(C)NC(C)=C(C(=O)OCC(C)C)C1c1ccccc1[N+](=O)[O-] (stereo not drawn) [Nisoldipine] | 81% | 75% | 85% |  |  | 
26 | O=C(Nc1ccccc1)OCC(CN1CCCCC1)OC(=O)Nc1ccccc1 (stereo not drawn) [Diperodon HCl] | 99% | 98% | 103% |  |  | 
27 | COc1ccc(-c2nc3ccc(C4=NNC(=O)CC4C)cc3[nH]2)cc1 (stereo not drawn) [Pimobendan] | 122% | 118% | 95% |  |  | 
28 | CCOC(=O)[C@H](CCc1ccccc1)N[C@H]1CCCN2CCC[C@@H](C(=O)O)N2C1=O [Cilazapril Monohydrate] | 91% | 111% | 73% |  |  | 
29 | CCOC(=O)[C@H](CCc1ccccc1)N[C@@H](C)C(=O)N1Cc2cc(OC)c(OC)cc2C[C@H]1C(=O)O [Moexipril HCl] | 103% | 98% | 83% |  |  | 
30 | CC(C)(C)c1cc(NC(=O)Nc2ccc(-c3cn4c(n3)sc3cc(OCCN5CCOCC5)ccc34)cc2)no1 [Quizartinib (AC220)] | 112% | 114% | 97% |  |  | 
31 | N=C(N)c1ccc2cc(OC(=O)c3ccc(N=C(N)N)cc3)ccc2c1 [Nafamostat Mesylate] | 204% | 264% | 67% |  |  | 
32 | CC(=O)NS(=O)(=O)c1ccc(NC(=O)c2ccccc2C(=O)O)cc1 [Phthalylsulfacetamide] | 104% | 120% | 101% |  |  | 
33 | NC(=O)N1c2ccccc2C=Cc2ccccc21 [Carbamazepine] | 98% | 112% | 80% |  |  | 
34 | O=C(O)CCCC[C@@H]1SC[C@@H]2NC(=O)N[C@@H]21 [Biotin (Vitamin B7)] | 104% | 101% | 86% |  |  | 
35 | N=C(N)NC(=O)c1nc(Cl)c(N)nc1N [Amiloride hydrochloride dihydrate] | 254% | 219% | 220% |  |  | 
36 | CC(=O)NC[C@H]1CN(c2ccc(N3CCOCC3)c(F)c2)C(=O)O1 [Linezolid] | 98% | 97% | 89% |  |  | 
37 | CCOC(=O)C1=C(C)NC(C)=C(C(=O)OC)C1c1cccc([N+](=O)[O-])c1 (stereo not drawn) [Nitrendipine] | 85% | 84% | 68% |  |  | 
38 | O=C(CCCN1CC=C(n2c(=O)[nH]c3ccccc32)CC1)c1ccc(F)cc1 [Droperidol] | 85% | 106% | 71% |  |  | 
39 | CC(CN1c2ccccc2Sc2ccccc21)N(C)C.Cl (stereo not drawn) [Promethazine HCl] | 99% | 106% | 77% |  |  | 
40 | [I-].[K+] [Potassium Iodide] | 94% | 91% | 87% |  |  | 
41 | CNC(=C[N+](=O)[O-])NCCSCc1csc(CN(C)C)n1 [Nizatidine] | 87% | 105% | 97% |  |  | 
